Common to all, as to experiment: MIC, Staphylococcus panel (9.2)
Holding throughout (format): cell-based

The test system of assay [1] is Staphylococcus aureus ATCC 106414 (VISA). Conditions: 18 h. Here is the method:
(§1) The microdilution method recommended by the Clinical and Laboratory Standard Institute [M07-A9, Vol. 32, N° 2] was used. The activity of bis-indolic compounds 3f and 4 was tested against 35 Staphylococcus bacterial strains corresponding to 12 different species,
(§2) Bacterial inocula were prepared in Mueller Hinton broth (MH2, BioMérieux, Marcy L'Etoile, France). They were dispensed in 96 well microtiter plates (5×10^5 CFU/ml of final inoculum, 192 μL per well). Indolic compounds diluted in pure DMSO (8 μL per well, concentrated 25 times) were added to the wells as to obtain two-fold serial concentrations (0.5-32 mg/L of final concentrations). The final concentration of DMSO was 4% in each well.
(§3) To avoid cross-contaminations in microtiter plates, one row was left blank between each strain tested. Microplates were incubated for 18 h at 37° C. in ambient air. Then MICs were read visually and, in case of visual reading difficulties, confirmed using a spectrophotometer at a wavelength of 630 nm (BioTek® EL808 Absorbance Microplate Reader). MICs corresponded to the minimum bis-indolic compound concentration that allowed complete visual growth inhibition of bacteria. Drug-free cultures served as growth controls.
Four Staphylococcus aureus strains were used. Two reference strains were provided by the French reference center for Staphylococcus spp. (Lyon, France), including one methicillin-susceptible (MSSA 476) and one methicillin-resistant (MRSA 252) S. aureus strains. The two remaining S. aureus strains were purchased from the CRBIP (Centre de Ressources Biologiques de l'Institut Pasteur): a vancomycin-intermediate strain (ATCC 106414) and a S. aureus strain (SA-1199B) resistant to fluoroquinolones due to overexpression of the NorA multidrug efflux pump.

For assay [2], the system named is Staphylococcus capitis (CHUG-Scap4). The settings on record: S. capitis CHUG-Scap4, 4% DMSO, 18 h. On the procedure: as §1, §2, §3
(§4) Coagulase-negative Staphylococcus strains included three reference strains purchased from CRBIP: a methicillin-susceptible S. epidermidis strain (ATCC 12228), a methicillin-resistant S. epidermidis strain (ATCC 49461), and a methicillin-susceptible S. sciuri strain (ATCC 29061). We also used clinical strains belonging to the following coagulase-negative Staphylococcus species: S. auricularis (two strains), S. warneri (five strains), S. capitis (five strains), S. haemolyticus (four strains), S. hominis (seven strains), S. cohnii (two strains), and S. saprophyticus, S. caprae and S. simulans (one strain each). Identification of the clinical strains was obtained using VITEK® 2 System (Biomérieux). The specified strain numbers correspond to an internal number of the bacterial strain collection of our laboratory.

Assay [3] relates to Staphylococcus hominis (CHUG-Shom5). The settings on record: S. hominis CHUG-Shom5, 4% DMSO, 18 h. Here is the method: as §1, §2, §3, §4
Assay [4] deals with Staphylococcus warneri (CHUG-Swar4). The settings on record: S. warneri CHUG-Swar4, 4% DMSO, 18 h. On the procedure:
as §1, §2, §3, §4

For assay [5], the system named is Staphylococcus auricularis (CHUG-Saur3). Conditions: S. auricularis CHUG-Saur3, 4% DMSO, 18 h. On the procedure: as §1, §2, §3, §4
Assay [6] has as its system Staphylococcus capitis (CHUG-Scap7). The settings on record: S. capitis CHUG-Scap7, 4% DMSO, 18 h. On the procedure:
as §1, §2, §3, §4

The subject of assay [7] is Staphylococcus haemolyticus (CHUG-Shae5). Conditions: S. haemolyticus CHUG-Shae5, 4% DMSO, 18 h. Here is the method: as §1, §2, §3, §4
For assay [8], the system named is Staphylococcus cohnii (CHUG-Scoh1) (MRSA). Conditions: S. cohnii CHUG-Scoh1 (MRSA), 4% DMSO, 18 h. On the procedure: as §1, §2, §3, §4
Assay [9] deals with Staphylococcus capitis (CHUG-Scap6). Conditions: S. capitis CHUG-Scap6, 4% DMSO, 18 h. On the procedure:
as §1, §2, §3, §4

For assay [10], the system named is Staphylococcus warneri (CHUG-Swar6). The settings on record: S. warneri CHUG-Swar6, 4% DMSO, 18 h. On the procedure:
as §1, §2, §3, §4

The test system of assay [11] is Staphylococcus hominis (CHUG-Shom8). Conditions: S. hominis CHUG-Shom8, 4% DMSO, 18 h. Here is the method:
as §1, §2, §3, §4

In assay [12] the test system is Staphylococcus warneri (CHUG-Swar7). Conditions: S. warneri CHUG-Swar7, 4% DMSO, 18 h. Here is the method: as §1, §2, §3, §4
The test system of assay [13] is Staphylococcus warneri (CHUG-Swar5). The settings on record: S. warneri CHUG-Swar5, 4% DMSO, 18 h. On the procedure: as §1, §2, §3, §4
In assay [14] the test system is Staphylococcus hominis (CHUG-Shom7). The settings on record: S. hominis CHUG-Shom7, 4% DMSO, 18 h. On the procedure: as §1, §2, §3, §4
Assay [15] deals with Staphylococcus caprae (CHUG-Scapra1). Conditions: S. caprae CHUG-Scapra1, 4% DMSO, 18 h. Here is the method: as §1, §2, §3, §4
Assay [16] relates to Staphylococcus hominis (CHUG-Shom3). Conditions: S. hominis CHUG-Shom3, 4% DMSO, 18 h. On the procedure: as §1, §2, §3, §4
Assay [17] relates to Staphylococcus haemolyticus (CHUG-Shae6). Conditions: S. haemolyticus CHUG-Shae6, 4% DMSO, 18 h. On the procedure: as §1, §2, §3, §4
The test system of assay [18] is Staphylococcus capitis (CHUG-Scap5). The settings on record: S. capitis CHUG-Scap5, 4% DMSO, 18 h. Here is the method:
as §1, §2, §3, §4

Assay [19] concerns Staphylococcus haemolyticus (CHUG-Shae4). The settings on record: S. haemolyticus CHUG-Shae4, 4% DMSO, 18 h. On the procedure: as §1, §2, §3, §4
Assay [20] deals with Staphylococcus cohnii (CHUG-Scoh2). The settings on record: S. cohnii CHUG-Scoh2, 4% DMSO, 18 h. On the procedure:
as §1, §2, §3, §4

Assay [21] concerns Staphylococcus saprophyticus (CHUG-Ssap2). Conditions: S. saprophyticus CHUG-Ssap2, 4% DMSO, 18 h. Here is the method: as §1, §2, §3, §4
Assay [22] concerns Staphylococcus simulans (CHUG-Ssim1). The settings on record: S. simulans CHUG-Ssim1, 4% DMSO, 18 h. On the procedure:
as §1, §2, §3, §4

For assay [23], the system named is Staphylococcus hominis (CHUG-Shom6). The settings on record: S. hominis CHUG-Shom6, 4% DMSO, 18 h. On the procedure:
as §1, §2, §3, §4

For assay [24], the system named is Staphylococcus hominis (CHUG-Shom4). Conditions: S. hominis CHUG-Shom4, 4% DMSO, 18 h. Here is the method: as §1, §2, §3, §4

In brackets after ≈: the same amount, converted by molar mass.

In general, MIC refers to the smallest concentration in the dilution series that meets the test's criterion for growth inhibition. Low values mean inhibition by little substance, high ones a need for much substance. `CC(NC(=O)c1c[nH]c2ccc(Br)cc12)c1c[nH]c2ccc(Br)cc12` (stereo not drawn) [Compound 4, 5-Bromo-N-(1-(5-bromo-1H-indol-3-yl)ethyl)-1H-indole-3-carboxamide]: 1 µg/mL (≈ 2.17 µM) was the least that counted as inhibitory in [1] (MIC).
As for `CC(C)(C)OC(=O)NCC(NC(=O)c1c[nH]c2ccc(Br)cc12)c1c[nH]c2ccc(Br)cc12` (stereo not drawn) [Compound 3f, tert-Butyl(2-(5-bromo-1H-indol-3-yl)-2-(5-bromo-1H-indolyl-3-carboxamido)ethyl)carbamate], the MIC in assay [2] came out at 4 µg/mL (≈ 6.94 µM); in assay [3], 8 µg/mL (≈ 13.9 µM); in [4] it was 8 µg/mL (≈ 13.9 µM); in assay [5], 8 µg/mL (≈ 13.9 µM); in [6], 16 µg/mL (≈ 27.8 µM); in assay [7], 16 µg/mL (≈ 27.8 µM). The minimum inhibitory concentration (MIC) in [8] came out at 16 µg/mL (≈ 27.8 µM); in [9] it was 8 µg/mL (≈ 13.9 µM); in assay [10] it was 8 µg/mL (≈ 13.9 µM); in [11] it was 8 µg/mL (≈ 13.9 µM); in assay [12], 8 µg/mL (≈ 13.9 µM); in assay [13] it was 8 µg/mL (≈ 13.9 µM). Further, the minimal inhibitory concentration (MIC) was 8 µg/mL (≈ 13.9 µM) in [14]; 8 µg/mL (≈ 13.9 µM) in assay [15]; 16 µg/mL (≈ 27.8 µM) in assay [16]; 16 µg/mL (≈ 27.8 µM) in [17]; 16 µg/mL (≈ 27.8 µM) in [18]; 16 µg/mL (≈ 27.8 µM) in [19]. Moreover, the minimal inhibitory concentration (MIC) in assay [20] came to 16 µg/mL (≈ 27.8 µM); in [21] it was 8 µg/mL (≈ 13.9 µM); in [22], 16 µg/mL (≈ 27.8 µM); in [23] it was 8 µg/mL (≈ 13.9 µM); in [24] it was 8 µg/mL (≈ 13.9 µM).

These data come from patent publication US9676715B2, “Bis-indolic derivatives, a process for preparing the same and their uses as a drug” (UNIVERSITE JOSEPH FOURIER, priority 2011, dated 2017).
